In patent US8518891B2 (priority 2006, dated 2013):
Where “and” joins values, the source holds several entries; their conditions need not be identical. Identical values can stand only once. Like-named read-outs stand apart in the source and are kept apart here. Numbered stars: 1 amine (or outer) side, 2 acyl side, 3 side chain; on linkers, the order of the positions; unused ones are H or OH. Square brackets hold non-standard residues; d marks the D form. Peptide text beside a SMILES is read from it. * marks the point of attachment. X5 = NP(=O)(OCc1c(F)c(F)c(N*)c(F)c1F)N(CCCl)CCCl; X4 = NP(=O)(OCc1c(F)cc(N*)cc1F)N(CCCl)CCCl; X2 = NP(=O)(OCc1ccc(N*)c(F)c1)N(CCCl)CCCl; X1 = NP(=O)(OCc1ccc(N*)cc1F)N(CCCl)CCCl; X3 = NP(=O)(OCc1ccc(N*)cc1)N(CCCl)CCCl; Glutaryl = O=C(CCCC(=O)[*:2])[*:1]; Hyp = O=C(O)[C@@H]1C[C@@H](O)CN1; Chg = N[C@H](C(=O)O)C1CCCCC1

Legend:
[1] = tested on: LNCaP human prostate cancer cell line; test: In vitro antiproliferative activity assay in PSA-producing LNCaP cells; assay type: cell-based; details: 72 h drug exposure
Text: (§1) Furthermore, analogs 5b and 5c were synthesized with an electron-withdrawing fluorine atom at C2 (5b) and C3 (5c), respectively.

[2] = Stability of peptide-linker-drug conjugates in the absence of PSA, disappearance monitored by HPLC; assay type: physicochemical; details: for half-life: 0.1 M phosphate buffer, pH 7.4, 37° C., read-out: T1/2 -PSA (stability) (converted); for Stability relative to 5a in the absence of PSA: in words
Method: (§2) First, the stability and PSA cleavage of glutaryl-Hyp-Ala-Ser-Chg-Gln-aminobenzyl phosphoramide mustard without substitutions on the benzyl ring (5a) was tested by monitoring the disappearance of the peptide-linker-drug conjugate using HPLC. […] Thus, peptide-linker-drug conjugate 5a is a substrate of PSA. The hydrolysis in the presence of PSA was 40 times faster than that in the absence of PSA. But, the instability in the absence of PSA was a concern. This instability can be addressed by introducing an electron-withdrawing fluorine atom on the aromatic ring as shown in Table 1. […] In the presence of PSA, they were more quickly hydrolyzed with t½of 43 and 57 min, respectively.

[3] = tested on: DU145 human prostate cancer cell line; test: In vitro antiproliferative activity assay in non-PSA-producing DU145 cells; assay type: cell-based; details: 72 h drug exposure
Text: as §1

PSA = PSA (Homo sapiens, UniProt P07288); test: PSA cleavage of peptide-linker-drug conjugates, disappearance monitored by HPLC; assay type: biochemical; details: for half-life: PSA, in the presence of PSA; for Stability Ratio between T1/2 in the absence and presence of PSA: T1/2 (-PSA) / T1/2 (+PSA)
Sequence of PSA (P07288 25-261): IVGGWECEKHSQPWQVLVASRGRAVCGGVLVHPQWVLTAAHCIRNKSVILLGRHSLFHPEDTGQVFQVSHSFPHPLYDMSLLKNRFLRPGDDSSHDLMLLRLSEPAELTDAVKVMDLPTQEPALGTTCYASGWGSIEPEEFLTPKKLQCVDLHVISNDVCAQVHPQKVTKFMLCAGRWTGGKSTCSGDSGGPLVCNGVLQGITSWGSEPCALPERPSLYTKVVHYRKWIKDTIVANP
Method: as §2

[4] = read-out: T1/2 +PSA (PSA-catalyzed cleavage) (converted)
[5] = read-out: t½ in the presence of PSA

| Compound | IC50 [1] [µM] | half-life [2] [h] | IC50 [3] | half-life (PSA; [4]) [h] | Stability Ratio between T1/2 in the absence and presence of PSA (PSA) | Stability relative to 5a in the absence of PSA [2] | half-life (PSA; [5]) [h] |
| --- | --- | --- | --- | --- | --- | --- | --- |
| C[C@H](NC(=O)[C@@H]1C[C@@H](O)CN1C(=O)CCCC(=O)O)C(=O)N[C@@H](CO)C(=O)N[C@H](C(=O)N[C@@H](CCC(N)=O)C(=O)Nc1ccc(COP(N)(=O)N(CCCl)CCCl)cc1)C1CCCCC1 (stereo partly drawn) [5a, glutaryl-Hyp-Ala-Ser-Chg-Gln-NH-benzyl phosphoramide mustard] (Glutaryl-[Hyp]AS[Chg]Q-X3) | 11 | 48 | ~35 µM and 35 µM | 1.2 | 40 | – | – |
| C[C@H](NC(=O)[C@@H]1C[C@@H](O)CN1C(=O)CCCC(=O)O)C(=O)N[C@@H](CO)C(=O)N[C@H](C(=O)N[C@@H](CCC(N)=O)C(=O)Nc1ccc(COP(N)(=O)N(CCCl)CCCl)c(F)c1)C1CCCCC1 (stereo partly drawn) [5b, glutaryl-Hyp-Ala-Ser-Chg-Gln-NH-2-fluorobenzyl phosphoramide mustard] (Glutaryl-[Hyp]AS[Chg]Q-X1) | 5.3 | 105 | > 100 µM | 0.93 | 113 | much more stable than 5a | 0.717 |
| C[C@H](NC(=O)[C@@H]1C[C@@H](O)CN1C(=O)CCCC(=O)O)C(=O)N[C@@H](CO)C(=O)N[C@H](C(=O)N[C@@H](CCC(N)=O)C(=O)Nc1c(F)c(F)c(COP(N)(=O)N(CCCl)CCCl)c(F)c1F)C1CCCCC1 (stereo partly drawn) [5e, glutaryl-Hyp-Ala-Ser-Chg-Gln-NH-2,3,5,6-tetrafluorobenzyl phosphoramide mustard] (Glutaryl-[Hyp]AS[Chg]Q-X5) | > 100 | 178 | > 100 µM | 1.1 | 162 | – | – |
| C[C@H](NC(=O)[C@@H]1C[C@@H](O)CN1C(=O)CCCC(=O)O)C(=O)N[C@@H](CO)C(=O)N[C@H](C(=O)N[C@@H](CCC(N)=O)C(=O)Nc1ccc(COP(N)(=O)N(CCCl)CCCl)cc1F)C1CCCCC1 (stereo partly drawn) [5c, glutaryl-Hyp-Ala-Ser-Chg-Gln-NH-3-fluorobenzyl phosphoramide mustard] (Glutaryl-[Hyp]AS[Chg]Q-X2) | 29 | 462 | > 100 µM | 0.65 | 711 | much more stable than 5a | 0.95 |
| C[C@H](NC(=O)[C@@H]1C[C@@H](O)CN1C(=O)CCCC(=O)O)C(=O)N[C@@H](CO)C(=O)N[C@H](C(=O)N[C@@H](CCC(N)=O)C(=O)Nc1cc(F)c(COP(N)(=O)N(CCCl)CCCl)c(F)c1)C1CCCCC1 (stereo partly drawn) [5d, glutaryl-Hyp-Ala-Ser-Chg-Gln-NH-2,6-difluorobenzyl phosphoramide mustard] (Glutaryl-[Hyp]AS[Chg]Q-X4) | 20 | 131 | > 100 µM | 1.75 | 75 | – | – |
